{"source": "patent US20110097274A1", "about": "“Carbon-11 and fluorine-18 labeled radioligands for positron emission tomography (PET) imaging for the brain serotonin transporters” (priority 2002, published 2011)", "key": {"[1]": {"assay": "Biodistribution of labeled radioligands in male Sprague-Dawley rats", "assay_type": "in vivo", "conditions": "mean ± SD, n = 3", "text": "Appropriately labeled compounds were studied in animals to assess their binding characteristics in the brain. Procedures for these biodistribution studies are as follows. […] The brain regions (cerebellum, hippocampus, striatum, frontal cortex, thalamus and hypothalamus), along with samples of blood and part of the tail, were removed, weighed, and counted in a Packard Cobra II gamma counter. The percent injected dose (% ID) of the decay- and tail-corrected activity in the brain regions and blood were calculated based upon C-11 standards prepared from the injection solution, and the % ID/g were calculated using the tissue weights."}, "[2]": {"assay": "Experiment 4: plasma analysis, [^11C]AFM and [^18F]AFM in the same baboon", "description": "The animal was then injected with [^18F]AFM (2.60 mCi, 425 Ci/mmol, 1.51 μg) and scanned for 90 minutes. […] Arterial activity was corrected for parent fraction to form the input function."}, "[3]": {"assay": "Experiment 5: plasma clearance of ^11C and ^18F labeled AFM, AFA, AFE in one baboon", "assay_type": "in vivo", "conditions": "one adult male baboon, n = 1 to 4 scans", "experimental": "(§1) General scanning methods were as described in Huang et al. (2002). Arterial input function was measured and corrected for metabolites."}, "SERT [4]": {"tested_on": "SERT", "conditions": "same baboon, one tissue compartment model", "description": "The animal was then injected with [^18F]AFM (2.60 mCi, 425 Ci/mmol, 1.51 μg) and scanned for 90 minutes. Analysis of the input function and brain uptake was performed as described in the previous section. […] Arterial activity was corrected for parent fraction to form the input function.\nData were analyzed with a one tissue compartment model."}, "SERT [5]": {"tested_on": "SERT", "assay": "Experiment 5: PET brain imaging of ^11C and ^18F labeled AFM, AFA, AFE in one baboon", "assay_type": "in vivo", "conditions": "one adult male baboon, n = 1 to 4 scans, two-compartment model", "experimental": "as §1\nActivity distributed in the brain in accordance to the known density distribution pattern of SERT (Laruelle et al., 1988). […] Data were analyzed with a two-compartment model, using the metabolite-corrected arterial time-activity curve as input function. This analysis provided the regional distribution volumes (VT, mL/g).\nThe nonspecific distribution volume, measured as the distribution volume of the cerebellum (a region with negligible SERT density) was in a similar range for all tracers (10 to 30 mL/g, Table 16).\nThe specific to nonspecific partition coefficient, V3″, was calculated as the ratio of VT in the region of interest (ROI) to cerebellum VT minus one. V3″ provides a measure related to receptor parameters as follows: […]"}, "[6]": {"conditions": "baboons (Acton et al., 1999a); cited from earlier work"}, "SERT [7]": {"tested_on": "SERT", "conditions": "literature; cited from earlier work"}}, "data": [{"smiles": "CN(C)Cc1ccccc1Sc1ccc(C[18F])cc1N", "note": "[[^18F]AFM, [^18F]2-[2-(Dimethylaminomethyl)phenylthio]-5-fluoromethylphenylamine]", "values": [{"measurement": "% ID/g Blood", "setting": "[1]; 10 min post-injection", "value": "0.37 ± 0.04", "unit": "% ID/g"}, {"measurement": "% ID/g Cerebellum", "setting": "[1]; 10 min post-injection", "value": "0.33 ± 0.04", "unit": "% ID/g"}, {"measurement": "% ID/g Frontal Ctx.", "setting": "[1]; 10 min post-injection", "value": "0.82 ± 0.14", "unit": "% ID/g"}, {"measurement": "% ID/g Hippocamp.", "setting": "[1]; 10 min post-injection", "value": "0.51 ± 0.07", "unit": "% ID/g"}, {"measurement": "% ID/g Hypothal.", "setting": "[1]; 10 min post-injection", "value": "0.70 ± 0.08", "unit": "% ID/g"}, {"measurement": "% ID/g Striatum", "setting": "[1]; 10 min post-injection", "value": "0.69 ± 0.15", "unit": "% ID/g"}, {"measurement": "% ID/g Thalamus", "setting": "[1]; 10 min post-injection", "value": "0.72 ± 0.13", "unit": "% ID/g"}, {"measurement": "% ID/g Blood", "setting": "[1]; 30 min post-injection", "value": "0.28 ± 0.02", "unit": "% ID/g"}, {"measurement": "% ID/g Cerebellum", "setting": "[1]; 30 min post-injection", "value": "0.23 ± 0.03", "unit": "% ID/g"}, {"measurement": "% ID/g Frontal Ctx.", "setting": "[1]; 30 min post-injection", "value": "0.99 ± 0.20", "unit": "% ID/g"}, {"measurement": "% ID/g Hippocamp.", "setting": "[1]; 30 min post-injection", "value": "0.64 ± 0.12", "unit": "% ID/g"}, {"measurement": "% ID/g Hypothal.", "setting": "[1]; 30 min post-injection", "value": "0.82 ± 0.16", "unit": "% ID/g"}, {"measurement": "% ID/g Striatum", "setting": "[1]; 30 min post-injection", "value": "0.83 ± 0.12", "unit": "% ID/g"}, {"measurement": "% ID/g Thalamus", "setting": "[1]; 30 min post-injection", "value": "0.88 ± 0.06", "unit": "% ID/g"}, {"measurement": "% ID/g Blood", "setting": "[1]; 60 min post-injection", "value": "0.10 ± 0.04", "unit": "% ID/g"}, {"measurement": "% ID/g Cerebellum", "setting": "[1]; 60 min post-injection", "value": "0.13 ± 0.02", "unit": "% ID/g"}, {"measurement": "% ID/g Frontal Ctx.", "setting": "[1]; 60 min post-injection", "value": "0.71 ± 0.18", "unit": "% ID/g"}, {"measurement": "% ID/g Hippocamp.", "setting": "[1]; 60 min post-injection", "value": "0.45 ± 0.09", "unit": "% ID/g"}, {"measurement": "% ID/g Hypothal.", "setting": "[1]; 60 min post-injection", "value": "0.71 ± 0.14", "unit": "% ID/g"}, {"measurement": "% ID/g Striatum", "setting": "[1]; 60 min post-injection", "value": "0.57 ± 0.12", "unit": "% ID/g"}, {"measurement": "% ID/g Thalamus", "setting": "[1]; 60 min post-injection", "value": "0.67 ± 0.15", "unit": "% ID/g"}, {"measurement": "% ID/g Blood", "setting": "[1]; 90 min post-injection", "value": "0.08 ± 0.03", "unit": "% ID/g"}, {"measurement": "% ID/g Cerebellum", "setting": "[1]; 90 min post-injection", "value": "0.08 ± 0.01", "unit": "% ID/g"}, {"measurement": "% ID/g Frontal Ctx.", "setting": "[1]; 90 min post-injection", "value": "0.52 ± 0.19", "unit": "% ID/g"}, {"measurement": "% ID/g Hippocamp.", "setting": "[1]; 90 min post-injection", "value": "0.36 ± 0.12", "unit": "% ID/g"}, {"measurement": "% ID/g Hypothal.", "setting": "[1]; 90 min post-injection", "value": "0.58 ± 0.13", "unit": "% ID/g"}, {"measurement": "% ID/g Striatum", "setting": "[1]; 90 min post-injection", "value": "0.45 ± 0.17", "unit": "% ID/g"}, {"measurement": "% ID/g Thalamus", "setting": "[1]; 90 min post-injection", "value": "0.50 ± 0.15", "unit": "% ID/g"}, {"measurement": "% ID/g Blood", "setting": "[1]; 120 min post-injection", "value": "0.04 ± 0.00", "unit": "% ID/g"}, {"measurement": "% ID/g Cerebellum", "setting": "[1]; 120 min post-injection", "value": "0.07 ± 0.02", "unit": "% ID/g"}, {"measurement": "% ID/g Frontal Ctx.", "setting": "[1]; 120 min post-injection", "value": "0.38 ± 0.09", "unit": "% ID/g"}, {"measurement": "% ID/g Hippocamp.", "setting": "[1]; 120 min post-injection", "value": "0.28 ± 0.05", "unit": "% ID/g"}, {"measurement": "% ID/g Hypothal.", "setting": "[1]; 120 min post-injection", "value": "0.55 ± 0.08", "unit": "% ID/g"}, {"measurement": "% ID/g Striatum", "setting": "[1]; 120 min post-injection", "value": "0.42 ± 0.10", "unit": "% ID/g"}, {"measurement": "% ID/g Thalamus", "setting": "[1]; 120 min post-injection", "value": "0.56 ± 0.10", "unit": "% ID/g"}, {"measurement": "Clearance of the parent compound", "setting": "[2]", "value": 54, "unit": "L/h"}, {"measurement": "Percent plasma activity corresponding to the parent compound", "setting": "[2]; 2 minutes", "value": 63.5, "unit": "%"}, {"measurement": "Percent plasma activity corresponding to the parent compound", "setting": "[2]; 4 minutes", "value": 40.0, "unit": "%"}, {"measurement": "Percent plasma activity corresponding to the parent compound", "setting": "[2]; 12 minutes", "value": 21.3, "unit": "%"}, {"measurement": "Percent plasma activity corresponding to the parent compound", "setting": "[2]; 30 minutes", "value": 8.7, "unit": "%"}, {"measurement": "Percent plasma activity corresponding to the parent compound", "setting": "[2]; 60 minutes", "value": 5.3, "unit": "%"}, {"measurement": "Percent plasma activity corresponding to the parent compound", "setting": "[2]; 90 minutes", "value": 4.6, "unit": "%"}, {"measurement": "Clearance", "setting": "[3]", "value": "40 ± 1", "unit": "L/h"}, {"measurement": "Thalamus V3″", "setting": "SERT [4]", "value": 2.27}, {"measurement": "Cerebellum V (nonspecific distribution volume)", "setting": "SERT [5]", "value": "23 ± 6", "unit": "mL/g"}]}, {"smiles": "CN(C)Cc1ccccc1Sc1ccc([123I])cc1N", "note": "[[^123I]ADAM]", "values": [{"measurement": "VT CER measured with SPECT", "setting": "[6]", "value": "2.25 ± 0.46", "unit": "mL/g"}, {"measurement": "Target to background ratio in vivo compared to [^123I]IDAM", "setting": "SERT [7]", "value": "four times higher"}]}]}
